# Experimental data published in patent US20210254056A1, “IDENTIFICATION AND TARGETED MODULATION OF GENE SIGNALING NETWORKS” (CAMP4 THERAPEUTICS CORPORATION, priority 2017, published 2021).
# Tests used:
# [1] = test system: primary human hepatocytes; experiment: RNA-seq of primary human hepatocytes treated with 39 small molecules (pilot and validation); conditions: for RNA-seq fold Δ (Log2): primary human hepatocytes; for Expected fold Δ: fold expected from RNA-seq Log2
# [2] = test system: primary human hepatocytes; experiment: qRT-PCR validation of gene expression in hepatocytes from a second donor; type: cell-based
# Description: qRT-PCR was performed on samples of primary human hepatocytes from a second donor. […] The 58 liver disease associated genes analyzed were ACADVL, ACAT2, ACSL1, ACSL5, AGPAT2, AGTR1, AHSG, ALAS1, AMACR, ANGPTL2, ARG1, CA12, CA2, CIDEC, COL1A1, CPS1, CPT1A, CPT2, CYP21A2, CYP2C19, CYP3A4, CYP7A1, ECH1, ENO3, ETFDH, FABP1, FABP6, G6PC, GHR, GLA, GYS2, HGD, HMGCR, HMGCS2, HMOX1, HOGA1, HPGD, IFT27, LDHA, LPIN2, MOGAT2, NCF2, PCSK9, POR, RMRP, SLC25A20, SLC2A2, SLC37A4, SLC51B, SLC6A20, SLC6A6, SOAT2, SULT2A1, TAT, TDO2, TMEM135, TNFSF11, and VLDLR as shown in Example 2.
structure (smiles),measurement,setting,value
CCOC(=O)N1c2ccc(C(F)(F)F)cc2[C@@H](N(Cc2cc(C(F)(F)F)cc(C(F)(F)F)c2)C(=O)OC)C[C@H]1CC [Torcetrapib],RNA-seq fold Δ (Log2),[1]; ACAT2 gene,1.22 Log2
same,Expected fold Δ,[1]; ACAT2 gene,2.33 fold
same,RNA-seq fold Δ (Log2),[1]; CYP7A1 gene,−1.42 Log2
same,Expected fold Δ,[1]; CYP7A1 gene,0.37 fold
same,RNA-seq fold Δ (Log2),[1]; HMGCR gene,1.26 Log2
same,Expected fold Δ,[1]; HMGCR gene,2.39 fold
same,RNA-seq fold Δ (Log2),[1]; PCSK9 gene,1.07 Log2
same,Expected fold Δ,[1]; PCSK9 gene,2.10 fold
same,RNA-seq fold Δ (Log2),[1]; TNFS11 gene,1.09 Log2
same,Expected fold Δ,[1]; TNFS11 gene,2.13 fold
same,Fold Δ,[2]; ACAT2 gene,2.87 fold
same,Fold Δ,[2]; CYP7A1 gene,0.85 fold
same,Fold Δ,[2]; HMGCR gene,4.02 fold
same,Fold Δ,[2]; PCSK9 gene,5.76 fold
same,Fold Δ,[2]; TNFS11 gene,1.01 fold
